{
  "source": "patent US11779575B2",
  "about": "“Use of Wnt inhibitor Wnt-C59 in preparation of drug for treating SCN5A mutation-induced dilated cardiomyopathy” (ZHONGSHAN HOSPITAL, FUDAN UNIVERSITY, priority 2020, dated 2023)",
  "key": {"[1]": {"tested_on": "SCN5A heterozygous mutant mice (KI) with galactose aging and adriamycin-induced DCM", "assay": "Evaluation on mouse cardiac function by echocardiography in aging and adriamycin-induced DCM model", "type": "in vivo", "details": "KI+Wnt-C59 group vs KI group, intragastric 1 mg/kg.d for 2 weeks", "protocol": "(§1) SPF-grade male C57BL/6 mice (purchased from Shanghai Jiesijie Experimental Animal Co., Ltd.) and SCN5A heterozygous mutant mice (aging 8 to 10 weeks and weighing 20 g to 25 g) were selected and intraperitoneally injected with d-galactose (500 mg/kg. d, sigma G5388) continuously for 8 weeks to construct aging models. Then the mice were intraperitoneally injected with adriamycin (4 intraperitoneal injections, total 10 mg/kg, Sangon A603456) to construct DCM models. After the models were constructed, cardiomyocytes were isolated from mice in each of the KI group and the WT group. The experimental scheme was approved by the Animal Management and Ethics Committee of Fudan University.\nAfter the ultrasonic test, there were 3 groups for study: WT group, KI group, and KI+Wnt-C59 group. Adriamycin was used for molding, and at the same time, the KI+Wnt-C59 group was intragastrically administered with Wnt-C59 (1 mg/kg.d, MCE HY-15659) every day, and the WT and KI groups were intragastrically administered with an equal volume of sterile normal saline as a control. […] The body weight was measured and recorded for mice in each group every day.\nThe echocardiogram was measured 2 weeks after the administration, with a probe frequency of 30 MHz. Specifically, the mice were anesthetized with isoflurane, and an M-mode image was recorded when a heart rate of the mice was maintained at 450 to 500 beats/min. […]"}, "[2]": {"tested_on": "SCN5A heterozygous mutant mice (KI) with galactose aging and adriamycin-induced DCM", "assay": "Heart size comparison after 2 weeks of drug intervention", "type": "in vivo", "details": "KI+Wnt-C59 group vs KI group; intragastric 1 mg/kg.d for 2 weeks", "protocol": "as §1\nAfter the ultrasonic test, there were 3 groups for study: WT group, KI group, and KI+Wnt-C59 group. Adriamycin was used for molding, and at the same time, the KI+Wnt-C59 group was intragastrically administered with Wnt-C59 (1 mg/kg.d, MCE HY-15659) every day, and the WT and KI groups were intragastrically administered with an equal volume of sterile normal saline as a control. Mice in each group received normal diet and water, and the administration was conducted continuously for 2 weeks. The body weight was measured and recorded for mice in each group every day.\nAfter 2 weeks of drug intervention, the mice were sacrificed and hearts thereof were collected for heart size comparison among the 3 groups."}, "46 types of tumor cells": {"tested_on": "46 types of tumor cells", "details": "cited from earlier work"}},
  "data": [
    {"compound": "Cc1cc(-c2ccc(CC(=O)Nc3ccc(-c4cccnc4)cc3)cc2)ccn1", "note": "[Wnt-C59]", "values": [
      {"measurement": "cardiac function (left ventricular ejection fraction, LVEF)", "setting": "[1]", "result": "significantly improved"},
      {"measurement": "heart size", "setting": "[2]", "result": "significantly smaller"},
      {"measurement": "proliferation of tumor cells", "setting": "46 types of tumor cells", "result": "significantly inhibit"}
    ]}
  ]
}
